# Assay results from US20090029949A1, “GPCR Ligands Identified by Computational Modeling” (priority 2006, published 2009).
# Legend:
# [1] = target: T1, S1P1 mutant T5.49S (Homo sapiens, UniProt P21453, T211S); assay: [35S]GTPγS binding, S1P1 T5.49S; assay type: biochemical; details: S1P-induced, S1P1 T5.49S in RH7777 cells
# T1 construct: expressed in transfected cells; host or cells: RH7777 (transient, pcDNA3.1)
# Description: (§1) RH7777 and HEK-293 cells (ATCC, Manassas, Va.) were maintained in Dulbecco's modified minimal essential medium (DMEM) containing 10% fetal bovine serum (Hyclone, Logan, Utah). Cells (2×10^6) were transfected with 2 μg of plasmid DNA with Effectene (Qiagen, Valencia, Calif.) according to the manufacturer's instructions, for 24 h. Before ligand binding and receptor activation assays, the cells were washed twice with serum-free DMEM and serum-starved for at least 6 h.
# (§2) S1P1 Receptor Activation Assays Receptor functional assays were performed in transiently transfected RH7777 cells by measuring S1P-activated [^35S]GTPγS binding as previously described (28).
# [2] = target: T2, S1P1 mutant V3.40T (Homo sapiens, UniProt P21453, V132T); assay: [35S]GTPγS binding, S1P1 V3.40T; assay type: biochemical; details: S1P-induced, S1P1 V3.40T in RH7777 cells
# T2 construct: expressed in transfected cells; host or cells: RH7777 (transient, pcDNA3.1)
# T2 sequence (P21453 whole entry V132T): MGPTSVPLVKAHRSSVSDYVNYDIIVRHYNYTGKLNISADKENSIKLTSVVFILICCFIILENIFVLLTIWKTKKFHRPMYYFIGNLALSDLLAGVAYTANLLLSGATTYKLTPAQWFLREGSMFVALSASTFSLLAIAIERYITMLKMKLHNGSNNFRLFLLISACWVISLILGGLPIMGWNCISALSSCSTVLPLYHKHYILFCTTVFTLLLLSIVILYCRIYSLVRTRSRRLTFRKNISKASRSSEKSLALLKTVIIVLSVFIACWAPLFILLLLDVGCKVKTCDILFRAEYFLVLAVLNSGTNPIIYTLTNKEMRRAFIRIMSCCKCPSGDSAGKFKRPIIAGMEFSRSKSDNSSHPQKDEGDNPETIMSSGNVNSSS
# Description: as §1, §2
# [3] = target: T3, S1P1 mutant K5.38A (Homo sapiens, UniProt P21453, K200A); assay: [35S]GTPγS binding, S1P1 K5.38A; assay type: biochemical; details: S1P-induced, S1P1 K5.38A in RH7777 cells
# T3 construct: expressed in transfected cells; host or cells: RH7777 (transient, pcDNA3.1)
# T3 sequence (P21453 whole entry K200A): as the sequence (P21453 whole entry V132T) above, with T132V, K200A counted along it
# Description: as §1, §2
# [4] = target: T4, S1P1 mutant C5.44D (Homo sapiens, UniProt P21453, C206D); assay: [35S]GTPγS binding, S1P1 C5.44D; assay type: biochemical; details: S1P-induced, S1P1 C5.44D in RH7777 cells
# T4 construct: expressed in transfected cells; host or cells: RH7777 (transient, pcDNA3.1)
# T4 sequence (P21453 whole entry C206D): as the sequence (P21453 whole entry V132T) above, with T132V, C206D counted along it
# Description: as §1, §2
# [5] = target: T5, S1P1 mutant T5.45G (Homo sapiens, UniProt P21453, T207G); assay: [35S]GTPγS binding, S1P1 T5.45G; assay type: biochemical; details: S1P-induced, S1P1 T5.45G in RH7777 cells
# T5 construct: expressed in transfected cells; host or cells: RH7777 (transient, pcDNA3.1)
# T5 sequence (P21453 whole entry T207G): as the sequence (P21453 whole entry V132T) above, with T132V, T207G counted along it
# Description: as §1, §2
# [6] = target: T6, S1P1 mutant T5.45S (Homo sapiens, UniProt P21453, T207S); assay: [35S]GTPγS binding, S1P1 T5.45S; assay type: biochemical; details: S1P-induced, S1P1 T5.45S in RH7777 cells
# T6 construct: expressed in transfected cells; host or cells: RH7777 (transient, pcDNA3.1)
# T6 sequence (P21453 whole entry T207S): as the sequence (P21453 whole entry V132T) above, with T132V, T207S counted along it
# Description: as §1, §2
# [7] = target: T7, S1P1 mutant V6.37T (Homo sapiens, UniProt P21453, V258T); assay: [35S]GTPγS binding, S1P1 V6.37T; assay type: biochemical; details: S1P-induced, S1P1 V6.37T in RH7777 cells
# T7 construct: expressed in transfected cells; host or cells: RH7777 (transient, pcDNA3.1)
# T7 sequence (P21453 whole entry V258T): as the sequence (P21453 whole entry V132T) above, with T132V, V258T counted along it
# Description: as §1, §2
# [8] = target: T8, S1P1 mutant V6.37L (Homo sapiens, UniProt P21453, V258L); assay: [35S]GTPγS binding, S1P1 V6.37L; assay type: biochemical; details: S1P-induced, S1P1 V6.37L in RH7777 cells
# T8 construct: expressed in transfected cells; host or cells: RH7777
# T8 sequence (P21453 whole entry V258L): as the sequence (P21453 whole entry V132T) above, with T132V, V258L counted along it
# Description: as §1, §2
# [9] = target: T9, S1P1 mutant V6.40L (Homo sapiens, UniProt P21453, V261L); assay: [35S]GTPγS binding, S1P1 V6.40L; assay type: biochemical; details: S1P-induced, S1P1 V6.40L in RH7777 cells
# T9 construct: expressed in transfected cells; host or cells: RH7777
# T9 sequence (P21453 whole entry V261L): as the sequence (P21453 whole entry V132T) above, with T132V, V261L counted along it
# Description: as §1, §2
# [10] = target: T10, S1P1 double mutant L3.43, 3.44G (Homo sapiens, UniProt P21453, L135G/L136G); assay: [35S]GTPγS binding, S1P1 L3.43, 3.44G; assay type: biochemical; details: S1P-induced, S1P1 L3.43, 3.44G in RH7777 cells
# T10 construct: expressed in transfected cells; host or cells: RH7777
# T10 sequence (P21453 whole entry L135G/L136G): as the sequence (P21453 whole entry V132T) above, with T132V, L135G, L136G counted along it
# Description: as §1, §2
# [11] = target: T11, S1P1 mutant F5.48Y (Homo sapiens, UniProt P21453, F210Y); assay: [35S]GTPγS binding, S1P1 F5.48Y; assay type: biochemical; details: S1P-induced, S1P1 F5.48Y in RH7777 cells
# T11 construct: expressed in transfected cells; host or cells: RH7777
# T11 sequence (P21453 whole entry F210Y): as the sequence (P21453 whole entry V132T) above, with T132V, F210Y counted along it
# Description: as §1, §2
# [12] = target: T12, S1P1 mutant W6.48A (Homo sapiens, UniProt P21453, W269A); assay: [32P]S1P competition binding, HEK-293 cells, W6.48A; details: S1P1 W6.48A
# T12 construct: expressed in transfected cells
# T12 sequence (P21453 whole entry W269A): as the sequence (P21453 whole entry V132T) above, with T132V, W269A counted along it
# Description: For the competition assays, HEK-293 cells were used. Briefly, 4×10^5 cells were plated in 24-well dishes and allowed to adhere overnight. The cells were then transfected with 0.4 μg of the cDNA using Lipofectamine 2000 (Invitrogen) and the transfection proceeded for 48 h. After washing the cells twice with ice-cold binding buffer (20 mM Tris-HCl, pH 7.4 and 150 mM NaCl), 0.1 nM [^32P]S1P and competing concentrations of cold S1P (1 nM-10 μM), resuspended in binding buffer+4% BSA, were applied to the cells and incubated on ice for 30 min. After washing the cells twice with ice-cold binding buffer+0.4% BSA, the cells were lysed with 0.5% SDS and equilibrated in scintillation fluid. The samples were measured in triplicate.
# [13] = target: T13, WT S1P1 (Homo sapiens, UniProt P21453); details: WT receptor, inventors' system (ref 28); read-out: apparent KD for S1P binding; cited from earlier work
# T13 sequence (P21453 whole entry): as the sequence (P21453 whole entry V132T) above, with T132V counted along it
# [14] = target: T13, WT S1P1; assay: Ligand-induced [35S]GTPγS binding, WT S1P1; assay type: biochemical; design: expressed in transfected cells; host or cells: RH7777 (transient, pcDNA3.1); details: S1P-induced, WT-S1P1 in RH7777 cells
# Description: as §1, §2
# [15] = target: S1P1 mutant L3.36E (Homo sapiens, UniProt P21453, L128E); assay: [32P]S1P radioligand binding, RH7777 cells, L3.36E; design: expressed in transfected cells; host or cells: RH7777 (transient, pcDNA3.1); details: radioligand 50 nM, S1P1 L3.36E
# Chain of S1P1 mutant L3.36E (P21453 whole entry L128E): as the sequence (P21453 whole entry V132T) above, with L128E, T132V counted along it
# Description: as §1
# The S1P binding assays were done essentially as previously described (28). Transfected RH7777 cells (5×10^5) were incubated at 4° C. in 20 mM Tris-HCl (pH 7.5) binding buffer containing 100 mM NaCl, 15 mM NaF, protease inhibitor cocktail (Sigma-Aldrich), and 0.2 mg/ml essentially fatty-acid free BSA with 1 nM [^32P]S1P in 50 nM S1P for 40 min. Cells were centrifuged and washed twice in binding buffer. The final pellet was resuspended in 2:1 CHCl3/MeOH and the suspension was equilibrated in scintillation fluid overnight. Cell-bound radioactivity was measured by liquid scintillation counting using a Beckman LS5000 TA counter (Beckman Coulter, Irvine, Calif.). Specific binding was defined as the difference between total binding and non-specific binding (in the presence of 2-5 μM cold S1P). Standard errors were computed on the basis of triplicate samples from two simultaneous transfections.
# T1 sequence (P21453 whole entry T211S): as the sequence (P21453 whole entry V132T) above, with T132V, T211S counted along it
structure (smiles),measurement,setting,value
"CCCCCCCCCCCCC/C=C/[C@@H](O)[C@@H](N)COP(=O)(O)O [S1P, Sphingosine 1-phosphate]",EC50,[1],6.6 nM
same,Emax,[1]; read-out: % WT Emax + s.d.,168%
same,EC50,[2],13.8 ± 1.8 nM
same,Emax,[2]; read-out: % WT Emax + s.d.,137%
same,EC50,[3],32.4 nM
same,Emax,[3]; read-out: % WT Emax + s.d.,97%
same,EC50,[4],79 ± 17 nM
same,Emax,[4]; read-out: % WT Emax + s.d.,85%
same,EC50,[5],30.9 nM
same,Emax,[5]; read-out: % WT Emax + s.d.,96%
same,EC50,[6],7.9 nM
same,Emax,[6]; read-out: % WT Emax + s.d.,28%
same,EC50,[7],13 nM
same,Emax,[7]; read-out: % WT Emax + s.d.,181%
same,EC50,[8],37.6 nM
same,Emax,[8]; read-out: % WT Emax + s.d.,247%
same,% WT Emax + s.d.,[9],∞
same,EC50 + s.d.,[9],∞
same,% WT Emax + s.d.,[10],∞
same,EC50 + s.d.,[10],∞
same,% WT Emax + s.d.,[11],∞
same,EC50 + s.d.,[11],∞
same,Bmax,[12],2080 fmol
same,Kd,"[12]; competition with cold S1P, read-out: KD + s.d.",38.5 nM
same,Kd,[13],36 ± 2 nM
same,% WT Emax + s.d.,[14],100 + 9.13 % WT
same,EC50,[14],1.4 ± 0.7 nM
same,[32P]S1P binding relative to WT,[15],> 50 % of the WT
